Active and inactive are the calls of the source. No rule for the calls is given here.
Target: glucose-6-phosphate dehydrogenase-6-phosphogluconolactonase (Plasmodium falciparum 3D7)
Experiment: inhibition of P. falciparum G6PD activity – biochemical, kinetic NADPH detection, orthogonal assay, dose response (AID 540269)
Details: purified PfG6PD-6PGL

Row | SMILES | IC50
1 | Cc1ccccc1OCC(=O)N/N=C/c1ccc(Sc2nc3ccccc3s2)o1 | > 80 µM (inactive)
2 | O=c1c2cc(F)ccc2sn1-c1ccc(F)cc1 | 23.4 µM
3 | Cc1cc(C)c[n+](C2=C([O-])c3ccccc3C(=O)/C2=N\S(=O)(=O)c2cccs2)c1 | > 80 µM (inactive)
4 | CCc1cc(-c2n[nH]c(C)c2-c2ccccc2Cl)c(O)cc1OC | > 80 µM (inactive)
5 | Cc1cccc(-n2c(=S)[nH]c3sc4c(c3c2=O)CCc2ccccc2-4)c1 | 40.9 µM
6 | CN(C)c1cccc2c1c(NC(=O)c1ccc(Cl)cc1)nn2C | > 80 µM (inactive)
7 | CNS(=O)(=O)c1ccc(-c2ccc(C=C3C(=O)NC(=O)NC3=O)o2)cc1 | 33.6 µM
8 | CC(=O)c1cccc(NC(=O)c2cnn(-c3ccccc3)c2C)c1 | 58.4 µM
9 | Cn1c2ccccc2c2ccc3c(c21)C(=O)C=CC3=O | 1.8 µM
10 | COc1cc(N2C(=O)C=CC2=O)ccc1N1C(=O)C=CC1=O | 19.5 µM
11 | C#CCCc1cscc1/C=[N+](\[O-])c1ccc(C(=O)OCC)cc1 | 36.4 µM
12 | COc1cc(/C=C2\SC(c3ccc(C)cc3)=NC2=O)ccc1O | > 80 µM (inactive)
13 | Cc1ccc(CNc2ccc(O)cc2)cc1 | 45.1 µM
14 | C[C@H](NC(=O)c1cc2c(cn1)[nH]c1ccccc12)C(=O)O | > 80 µM (inactive)
15 | CCNc1cc2c(cc1O)CCC1C2CCC2(C)C(O)CCC12 (stereo unspecified) | 35.7 µM
16 | Cc1ccc(SC2=C(Sc3ccc(C)cc3)C(=O)c3ccccc3C2=O)cc1 | 34.7 µM
17 | CCOC(=O)c1ccc(-n2c(N)c(C(=O)NCC3CCCO3)sc2=S)cc1 (stereo unspecified) | > 80 µM (inactive)
18 | Cc1ccc(C(=O)NCC(=O)NCC(=O)OCC(=O)c2ccc([N+](=O)[O-])cc2)cc1 | > 80 µM (inactive)
19 | CCc1nnc(NC(=O)c2ccc(Cl)nc2)s1 | > 80 µM (inactive)
20 | O=c1c2ccccc2sn1-c1ccccc1 | 9.73 µM
21 | N#Cc1ccc(N=c2ssnc2Cl)cc1 | 53.7 µM

Row | SMILES | IC50
22 | Cc1[nH]c(=S)c(C#N)c(C)c1CCC#N | > 80 µM (inactive)
23 | COc1cc(CN2CCN(CCCc3ccccc3)C(CCO)C2)cc(OC)c1O (stereo unspecified) | > 80 µM (inactive)
24 | CC(C)(C)c1ccc(C(=O)Nc2sc3c(c2C(=O)O)CCC3)cc1 | 12.7 µM
25 | Cc1ccc(-c2c(C(=O)N/N=C/c3ccsc3)nnn2-c2nonc2N)cc1 | 64.8 µM
26 | O=C(Nc1ccc(N2CCOCC2)c(Cl)c1)c1ccc(Cl)cc1 | > 80 µM (inactive)
27 | CCCCC1C(=O)N(c2ccccc2)N(c2ccc(O)cc2)C1=O (stereo unspecified) | > 80 µM (inactive)
28 | CCn1c(N)c(C(=O)NC)sc1=S | 26.3 µM
29 | Cc1ccc(/C=C/C(=O)N2CCN(S(=O)(=O)c3ccc(C)c(C)c3)CC2)o1 | > 80 µM (inactive)
30 | CCOC(=O)c1c(C)n(-c2ccc(C)cc2)c2c(C(C(C)=O)C(=O)O)c(Br)c(O)c(O)c12 (stereo unspecified) | 57.4 µM
31 | CC1(C)Cc2c(sc3nc4n(-c5ccccc5)c(=O)c(CCC(=O)O)nn4c(=O)c23)CO1 | 11.7 µM
32 | O=C(Sc1n[nH]c(=O)[nH]c1=O)c1ccccc1 | 22.8 µM
33 | Nc1cc(N)c(OCC(F)(F)F)cc1OCC(F)(F)F | > 80 µM (inactive)
34 | COc1cc(N)c2ncsc2c1 | > 80 µM (inactive)
35 | Cc1cc(O)c(C(C)C)cc1N=Cc1ccc(N(C)C)cc1 | > 80 µM (inactive)
36 | Nc1ccc2c3c(cccc13)-c1ccccc1-2 | 41.3 µM
37 | CCN1CCN(c2nc(C)nc3c2sc(=S)n3C)CC1 | > 80 µM (inactive)
38 | Cc1cc(C)c2c(=O)n(CC(=O)N3CCC(N4CCCCC4)CC3)sc2n1 | 48.4 µM
39 | O=C(Nc1sc2c(c1C(=O)O)CCC2)c1ccc(F)cc1 | 41.3 µM
40 | COC(=O)[C@H](CCSC)NC(=O)c1cc2c(cn1)[nH]c1ccccc12 | 20.2 µM
41 | O=c1c2ccccc2[se]n1-c1ccccc1 | 22.1 µM
42 | CC(C)(C)NC(=O)COc1ccc(CNc2ccc3[nH]c(=O)[nH]c3c2)cc1 | 10.4 µM

Row | SMILES | IC50
43 | CC1=CC(C)(C)Nc2ccc(OC(=O)CN3C(=O)CCC3=O)cc21 | 63.2 µM
44 | Cc1ccc2nc(SCC(=O)N/N=C/c3ccco3)cc(C)c2c1 | > 80 µM (inactive)
45 | c1ccc(-c2nc(N3CCOCC3)s[n+]2-c2ccccc2)cc1 | > 80 µM (inactive)
46 | O=C1C=CC(=O)N1c1ccc(N2CCCCC2)cc1 | 37 µM
47 | CC1CCc2c(nc3sc4c(c3c2N)CCCC4)C1 (stereo unspecified) | > 80 µM (inactive)
48 | CC(SCC(=O)Nc1ccccc1)c1nc2ccccc2c(=O)[nH]1 (stereo unspecified) | > 80 µM (inactive)
49 | CN1CCc2cccc3c2[C@@H]1Cc1ccc(O)c(O)c1-3 | > 80 µM (inactive)
50 | O=C1Nc2cc(C(=O)NCCCN3CCCC3)ccc2S/C1=C\c1ccccc1 | 22.3 µM
51 | Cc1ccc(C(=O)Nc2nnc(S(=O)(=O)N3CCC(C)CC3)s2)cc1 | 24.1 µM
52 | CC(C)c1nnc(NC(=O)c2cc3ccccc3o2)s1 | 31.2 µM
53 | COc1cc(N=c2ssnc2Cl)c(OC)cc1Cl | 36.8 µM
54 | CC(C)c1nnc(NC(=O)c2sc3ccccc3c2Cl)s1 | 35.5 µM
55 | COc1ccc(-c2cn3cc(C)ccc3n2)cc1Br | > 80 µM (inactive)
56 | Cc1cnc(C=NNC(N)=S)c2cccc(N)c12 | > 80 µM (inactive)
57 | CC(C)c1nnc(NC(=O)c2cccc(-n3cnnn3)c2)s1 | 27.4 µM
58 | CCOc1cc(CNc2ccc(N3CCCC3)cc2)cc(Cl)c1OC | > 80 µM (inactive)
59 | NCCc1cc(O)c(O)cc1O | 39.1 µM
60 | Cc1ccc(-n2c(N)c(C(=O)N3CCN(C)CC3)sc2=S)cc1 | 70.6 µM
61 | O=[N+]([O-])c1c(NCCO)cc(Sc2nc3ccccc3s2)c2nonc12 | > 80 µM (inactive)
62 | CCCCCCCCSC1=CC(=O)C(OC)=C(OC)C1=O | > 80 µM (inactive)
63 | Cc1ccc(-c2nc(N)s[n+]2-c2ccccc2)cc1 | > 80 µM (inactive)

Row | SMILES | IC50
64 | Cc1nnc(SCC(=O)c2cc(C)n(-c3ccc4c(c3)OCO4)c2C)s1 | > 80 µM (inactive)
65 | Cc1ccc(-c2nc(N3CCOCC3)s[n+]2-c2ccccc2)cc1 | > 80 µM (inactive)
66 | COc1cc(C(=O)O/N=C2\C=CC(=O)C=C2C)cc(OC)c1OC | > 80 µM (inactive)
67 | CN(C)c1ccc2nc3ccc(=O)cc-3sc2c1 | > 80 µM (inactive)
68 | CC(=NNC(=S)N1CCN(c2ccccn2)CC1)c1nccs1 | > 80 µM (inactive)
69 | NS(=O)(=O)c1ccc(N/N=C/c2ccc(O)c(O)c2O)c([N+](=O)[O-])c1 | > 80 µM (inactive)
70 | O=C(CCc1ccc(O)c(O)c1)N/N=C/c1cc2c(cc1[N+](=O)[O-])OCO2 | 16.6 µM
71 | C=CCN1C=C2C(=O)C(C)(OC(=O)CCC(=O)OC)C(=O)C(Br)=C2C=C1c1ccc(OC)cc1 (stereo unspecified) | > 80 µM (inactive)
72 | Nc1c(O)cccc1C(=O)O | 40.9 µM
73 | Cc1cc(O)c(-c2cc(O)c(C)cc2O)cc1O | 44.5 µM
74 | O=C(Cn1sc2ccccc2c1=O)Nc1ccc(F)cc1 | 13.8 µM
75 | O=C1Nc2ccccc2C(=O)C1(Cl)Cc1ccccc1 (stereo unspecified) | > 80 µM (inactive)
76 | COc1cc(N)c2ncccc2c1Cl | 45.8 µM
77 | Cc1ccc(Cl)cc1NC1=C/C(=N\S(=O)(=O)c2cccs2)c2ccccc2C1=O | > 80 µM (inactive)
78 | Cc1cccc(OCC(=O)NCC(=O)N/N=C/c2ccccc2)c1 | > 80 µM (inactive)
79 | c1ccc(OCc2nnc3n2N=C(c2ccccc2)CS3)cc1 | > 80 µM (inactive)
80 | O=C1CCN(c2ccccc2)N1 | > 80 µM (inactive)
81 | Cc1nc(COC(=O)c2cc(O)c3ccccc3c2O)cs1 | > 80 µM (inactive)
